Experiments:
[1] = molecular target: T1, AADC (Sus scrofa, UniProt P80041); experiment: In vitro AADC inhibition: time of 90% inactivation (14CO2 trapping, DL-[1-14C]-dopa substrate); type: biochemical, hog; set-up: key to RATING: ++++: The relative activities of the compounds are rated by the given number of "plus" signs; +++: The relative activities of the compounds are rated by the given number of "plus" signs; 0-+: The relative activities of the compounds are rated by the given number of "plus" signs; conditions: CONC. 10 μM
T1 sequence (P80041 1-486): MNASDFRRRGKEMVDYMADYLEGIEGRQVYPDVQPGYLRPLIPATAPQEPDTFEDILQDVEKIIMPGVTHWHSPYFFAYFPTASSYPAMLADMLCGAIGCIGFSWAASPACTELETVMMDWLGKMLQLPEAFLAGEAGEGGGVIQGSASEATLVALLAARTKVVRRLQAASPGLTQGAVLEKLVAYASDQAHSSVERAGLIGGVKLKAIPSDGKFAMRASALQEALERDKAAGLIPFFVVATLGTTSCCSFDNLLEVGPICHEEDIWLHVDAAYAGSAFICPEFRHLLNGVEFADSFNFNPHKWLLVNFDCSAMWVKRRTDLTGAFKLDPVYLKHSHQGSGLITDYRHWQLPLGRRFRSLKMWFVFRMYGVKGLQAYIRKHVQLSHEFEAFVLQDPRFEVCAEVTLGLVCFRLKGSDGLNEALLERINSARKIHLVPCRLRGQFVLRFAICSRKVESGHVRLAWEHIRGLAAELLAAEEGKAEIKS
Procedure: AADC can be purified from hog kidney by the general method of J. Christenson et al. Archs. Biochem. Biophys., 141, 356 (1970) and G. Lancaster et al., Can. J. Biochem., 50, 791 (1972), and the specific activity of the enzyme is determined by the ^14 CO2 trapping method using DL-[1-^14 C]-dopa as the substrate (see Christenson et al.). One unit of activity is defined as the total amount of enzyme which produces 1 n mol of CO2 per minute, with DL-[1-^14 C]-dopa as substrate.
To 100 μl of 50 mM-phosphate buffer pH 7.4 containing 100 mM-mercapto-ethanol are added 5 μl of an aqueous solution containing the test compound at the desired concentration and 50 μl of an aqueous solution containing 2 units of AADC. The mixture is incubated at 37° C. and 20 μl aliquots are removed at various times. The AADC activity remaining in each aliquot is measured by the CO2 trapping method of Christenson.
The relative activities of the compounds are rated by the given number of "plus" signs.

[2] = tested on: catecholamine content (norepinephrine, dopamine); experiment: Catecholamine content in organs of rats after oral administration once daily for 15 days (Table III); type: in vivo, rats (Sprague-Dawley); conditions: 24 h after 15th dose, vs control; for % CHANGE Brain Dopamine: * not significant
Procedure: The test animals (e.g. mice or rats) are given the test compound in a suitable vehicle, either orally or by injection, each day over the period of time desired. The animals are kept on a constant time cycle, and body weights are measured daily. The animals are sacrificed by decapitation 12 to 24 hours after receiving the last dose of the test compound. Control animals receive the vehicle alone.
Immediately after death, the organs (brain, heart, and kidney) are removed and homogenized either in 50 ml phosphate buffer pH 6.8 for AADC determination or in ice-cold 0.4 M HClO4 containing 0.05% (w/v) EDTA and 0.1% (w/v) sodium bisulfite for catecholamine determination. AADC activity is determined by the ^14 CO2 trapping method of J. Christenson, supra (see Example 14) using DL-[1-^14 C]-dopa as the substrate. Catecholamines are determined by centrifuging the homogenate, adding the supernatant to alumina buffered to pH 8.0-8.4 to adsorb the catecholamines, re-extracting the catecholamines from the alumina with 0.2 M HClO4 and determining the catecholamines in the extracts using known procedures, such as by reversed-phase ion-pair HPLC with electrochemical detection.
Table III gives the results obtained by testing particular compounds of Formula I in rats (Sprague-Dawley) after oral administration of the test compound once daily for 15 days. AADC activity was not determined.

[3] = 5 mg/kg oral once daily 15 days
[4] = 10 mg/kg oral once daily 15 days
[5] = 15 mg/kg oral once daily 15 days
[6] = 20 mg/kg oral once daily 15 days

NC(CF)(Cc1ccc(O)c(O)c1)C(=O)O (centres unmarked) [3,4-diOH-phenyl, 2-Amino-2-fluoromethyl-3-(3,4-dihydroxyphenyl)propionic acid]
TIME OF 90% INACTIVATION ([1]; pH 7.4, 37° C.): 1 to 2 min | RATING ([1]; relative activity): ++++ | % CHANGE Brain Norepinephrine [2, 3]: -25% | % CHANGE Heart Norepinephrine [2, 3]: -56% | % CHANGE Brain Dopamine [2, 3]: -2% | % CHANGE Brain Norepinephrine [2, 4]: -47% | % CHANGE Heart Norepinephrine [2, 4]: -67% | % CHANGE Brain Dopamine [2, 4]: -8% | % CHANGE Brain Norepinephrine [2, 5]: -51% | % CHANGE Heart Norepinephrine [2, 5]: -68% | % CHANGE Brain Dopamine [2, 5]: -6% | % CHANGE Brain Norepinephrine [2, 6]: -49% | % CHANGE Heart Norepinephrine [2, 6]: -72% | % CHANGE Brain Dopamine [2, 6]: -10%

From patent publication US4342780A, “Method of depleting endogenous monoamines” (Merrell-Toraude et Cie, priority 1981, dated 1982)
